According to US7988957B2, “Gene introduction efficiency enhancer” (Genesis Healthcare Corp., priority 2003, dated 2011):

What was measured:
[1] = system: head and neck cancer cell line HEp-2; assay: AAV-vector-mediated EGFP transgene expression; format: cell-based, human; conditions: FK228 1 ng/mL
Protocol: (§1) FK228 which had been isolated and purified through the method described in Japanese Patent Publication (kokoku) No. 7-64872 was employed as a histone deacetylase inhibitor. The FK228 was dissolved in ethanol for storage. When in use, the FK228 was diluted with a medium, to thereby regulate the FK228 concentration to fall within a range of 0 to 100 ng/mL.
(§2) An AAV vector genome plasmid and a helper plasmid were introduced into 293 cells through the calcium phosphate method, and AAV vectors (types 1 to 5) which express EGFP (enhanced green fluorescent protein) under the control of a cytomegalovirus (CMV) promoter were prepared. […]
(§3) The effect of FK228 on enhancing expression of a transgene was evaluated with glioma cells. Type-2 AAV vector (1×10^4 genome copies/cell) and FK228 (0, 0.01, 0.1, 1, 10, or 100 ng/mL) were added to a culture supernatant of the human glioma cell line U251MG, and 24 hours later, expression of EGFP was observed under a fluorescence microscope.
(§4) Similar to the case of U251MG, in the cases of the head and neck cancer cell line HEp-2 and the subcultured human glioma cells (prepared from an operative specimen), the effect of FK228 in enhancing AAV-vector-mediated gene transfer was evaluated.

[2] = system: human glioma cell line U251MG; assay: AAV-vector-mediated EGFP transgene expression, fluorescence microscope; format: cell-based; conditions: 24 hours
Protocol: as §1
An AAV vector genome plasmid and a helper plasmid were introduced into 293 cells through the calcium phosphate method, and AAV vectors (types 1 to 5) which express EGFP (enhanced green fluorescent protein) under the control of a cytomegalovirus (CMV) promoter were prepared. Specifically, the AAV vector preparation was performed through the method described in the following references. • Reference 1: Methods 2002; 8: 237-247 (described above) • Reference 2: Methods Enzymol 2002; 346: 378-393 (described above) • 3. Cells and Cell Culture (1) Human Glioma Cell Line; U251MG, U87MG
U251MG was obtained from JCRB Cell Bank, National Institute of Health Sciences. […]
as §3

U251MG [3] = assay: Number of viral genome copies taken into cells, real-time PCR; format: cell-based, human; conditions: FK228 1 ng/mL
Protocol: Type-2 AAV vector (1×10^4 genome copies/cell) and FK228 (1 ng/mL) were added to a culture supernatant of U251MG, and the number of viral genome copies taken into cells was semi-quantified by means of real-time PCR (ABI, Prism 7700; QIAGEN, SYBR Green PCR kit QuantiTect) (performed through the method according to Mol. Ther. Aug. 6, 2002 (2): 272-278). After U251MG cells were infected with the type-2 AAV vector, the number of intracellular genome copies was measured in a time-course manner (0, 2, 4, 12, and 24 hours).

U251MG [4] = assay: Percent occurrence of EGFP-positive cells by FACS analysis; format: cell-based, human; conditions: FK228 1 ng/mL, type-2 AAV vector, 24 hours, FIG. 1B
Protocol: (§5) Type-2 AAV vector (1×10^4 genome copies/cell) and FK228 (0, 0.01, 0.1, or 1 ng/mL) were added to a culture supernatant of U251MG, and 24 hours later, the percent occurrence of cells positive for CD51 (integrin) or EGFP was calculated through FACS analysis. The FACS analysis was performed through a customary method by use of FACSCan (Becton Dickinson, San Jose, Calif.) and CellQuest software (Becton Dickinson, San Jose, Calif.).
(§6) PE-labeled anti-CD51 monoclonal antibody: 13C2 was obtained from Cymbus Biotechnology Ltd., Chandlers Ford, UK. Dead cells were detected by means of 7-amino-actinomycin D (Via-Probe; Pharmingen, San Diego, Calif.).
(§7) Cells were washed with a FACS buffer (PBS containing 5% FBS and 0.05% sodium azide), and then incubated with the antibody on ice for 30 minutes. Fluorescences attributed to EGFP, PE, and Via-Probe were detected by FL1, FL2, and FL3, respectively. Cells negative for Via-Probe; i.e., viable cells, were employed for measuring expression of EGFP and/or CD51.

CD51 (integrin) = assay: Percent occurrence of CD51 (integrin)-positive cells by FACS analysis; format: cell-based, human; conditions: FK228 0, 0.01, 0.1 or 1 ng/mL; 24 hours; U251MG; FIG. 1A
Protocol: as §5, §6, §7

[5] = system: subcultured human glioma cells (prepared from an operative specimen); assay: AAV-vector-mediated EGFP transgene expression; format: cell-based; conditions: FK228 1 ng/mL
Protocol: as §1, §2, §3, §4

C/C=C1\NC(=O)[C@H]2CSSCC/C=C/[C@H](CC(=O)N[C@H](C(C)C)C(=O)N2)OC(=O)[C@H](C(C)C)NC1=O [FK228]
EGFP expression [1]: enhanced | EGFP expression enhancing effect ([2]; FK228 at 1 ng/mL or more, type-2 AAV vector): remarkable EGFP expression enhancing effect | expression of EGFP ([2]; Type-2 AAV vector 1×10^4 genome copies/cell, FK228 0, 0.01, 0.1, 1, 10 or 100 ng/mL): enhanced in an FK228-dose-dependent manner | genome copy number in the FK228-treated group (U251MG [3]; 24 hours after the infection): slight increase | genome copy number, FK228-treated group versus control group (only a solvent) (U251MG [3]; type-2 AAV vector, 0, 2, 4, 12 and 24 hours, FIG. 2): No significant difference | percent occurrence of EGFP-positive cells (U251MG [4]): sharply increased | percent occurrence of integrin-positive cells (CD51 (integrin)): gradual increase | EGFP expression [5]: enhanced
